# Earlier results, collected in US20200390726A1, “Compositions for Improved Neuroprotective Effects and Methods of Making Same” (Guardion Health Sciences, LLC, priority 2019, published 2020).
# System: glaucoma patients
# Conditions: literature, anthocyanins 50 mg daily, PEA 600 mg per day, Mirtogenol dose not given
smiles,measurement,setting,value
"CCCCCCCCCCCCCCCC(=O)NCCO [PEA, Palmitoylethanolamide]",effect on visual field,"citicoline 500 to 1,000 mg daily",improvement in the visual field
same,effect on intraocular pressure (IOP),forskolin 1% eye drops,lowering of IOP
